# Values quoted from earlier work in patent US20210069110A1, “NON-AQUEOUS COMPOSITION HAVING DRUG CARRIED THEREIN, AND METHOD FOR PRODUCING SAME” (Techno Guard Co. Ltd., priority 2017, published 2021).
# Details: General Notice of Japanese Pharmacopoeia
row,Water solubility of drug (Expression in Japanese Pharmacopoeia),SMILES
1,Practically insoluble,CO[C@H]1C(=O)[C@]2(C)[C@@H](OC)C[C@H]3OC[C@@]3(OC(C)=O)[C@H]2[C@H](OC(=O)c2ccccc2)[C@]2(O)C[C@H](OC(=O)[C@H](O)[C@@H](NC(=O)OC(C)(C)C)c3ccccc3)C(C)=C1C2(C)C [Cabazitaxel]
2,Practically insoluble,CC(=O)O[C@@]12CO[C@@H]1C[C@H](O)[C@@]1(C)C(=O)[C@H](O)C3=C(C)[C@@H](OC(=O)[C@H](O)[C@@H](NC(=O)OC(C)(C)C)c4ccccc4)C[C@@](O)([C@@H](OC(=O)c4ccccc4)[C@H]21)C3(C)C [Docetaxel]
3,Practically insoluble,CC(=O)O[C@H]1C(=O)[C@@]2(C)[C@H]([C@H](OC(=O)c3ccccc3)[C@]3(O)C[C@H](OC(=O)[C@H](O)[C@@H](NC(=O)c4ccccc4)c4ccccc4)C(C)=C1C3(C)C)[C@]1(OC(C)=O)CO[C@@H]1C[C@@H]2O [Paclitaxel]
4,Practically insoluble,CCCCC[C@H](O)/C=C/[C@H]1[C@H](O)CC(=O)[C@@H]1CCCCCCC(=O)O [Prostaglandin E1]
